Test results published in PubChem BioAssay (NCI).
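Method: 48-hour compound exposure of cells in 96-well plates, five concentrations, linear interpolation of endpoints. TGI marks complete inhibition of growth.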

Legend:
Experiment in all cases: NCI tumour cell line growth inhibition, 48 h
[1] = system: TK-10 renal
[2] = system: LOX IMVI melanoma
[3] = system: RPMI-8226 leukemia
[4] = system: UACC-257 melanoma
[5] = system: KM12 colon
[6] = system: SK-OV-3 ovarian
[7] = system: OVCAR-4 ovarian
[8] = system: T-47D breast
[9] = system: NCI-H460 lung
[10] = system: CCRF-CEM leukemia
[11] = system: OVCAR-8 ovarian
[12] = system: SF-295 CNS
[13] = system: COLO 205 colon
[14] = system: NCI-H23 lung
[15] = system: SF-539 CNS
[16] = system: HOP-62 NSCLC
[17] = system: SW-620 colon
[18] = system: HT29 colon
[19] = system: SNB-75 CNS
[20] = system: EKVX NSCLC
[21] = system: U251 CNS
[22] = system: MALME-3M melanoma
[23] = system: UO-31 renal
[24] = system: 786-0 renal
[25] = system: SR leukemia
[26] = system: MDA-N
[27] = system: HL-60(TB) leukemia
[28] = system: MDA-MB-435
[29] = system: A549 NSCLC
[30] = system: NCI/ADR-RES ovarian
[31] = system: HS 578T breast
[32] = system: MDA-MB-231 breast
[33] = system: OVCAR-5 ovarian
[34] = system: HCC-2998 colon
[35] = system: MCF7 breast
[36] = system: HCT-116 colon
[37] = system: NCI-H226 lung
[38] = system: ACHN renal
[39] = system: IGROV1 ovarian
[40] = system: OVCAR-3 ovarian
[41] = system: PC-3 prostate
[42] = system: K-562 leukemia
[43] = system: SK-MEL-5 melanoma
[44] = system: MOLT-4 leukemia
[45] = system: SK-MEL-2 melanoma
[46] = system: HCT-15 colon
[47] = system: UACC-62 melanoma
[48] = system: SK-MEL-28 melanoma
[49] = system: SN12C renal
[50] = system: M14 melanoma
[51] = system: DU-145 prostate
[52] = system: HOP-92 NSCLC
[53] = system: SF-268 CNS
[54] = system: CAKI-1 renal
[55] = system: NCI-H522 lung
[56] = system: A498 renal
[57] = system: RXF 393 renal
[58] = system: SNB-19 CNS

CCN(CC)CCOCCn1c2c(c3ccccc31)CCCC2
TGI [1]: 38.5 µM
TGI [2]: 37.3 µM
TGI [3]: 51.1 µM
TGI [4]: 48.7 µM
TGI [5]: > 100 µM
TGI [6]: 86.3 µM
TGI [7]: > 100 µM
TGI [8]: 52.9 µM
TGI [9]: 39.1 µM
TGI [10]: 50.9 µM
TGI [11]: > 100 µM
TGI [12]: > 100 µM
TGI [13]: 39.1 µM
TGI [14]: > 100 µM
TGI [15]: 32 µM
TGI [16]: 31.5 µM
TGI [17]: 36.8 µM
TGI [18]: 90.2 µM
TGI [19]: > 100 µM
TGI [20]: > 100 µM
TGI [21]: 49.3 µM
TGI [22]: 29.3 µM
TGI [23]: 36.8 µM
TGI [24]: 30 µM
TGI [25]: 35.5 µM
TGI [26]: 31.1 µM
TGI [27]: 24.6 µM
TGI [28]: 32.7 µM
TGI [29]: 72.2 µM
TGI [30]: 33.3 µM
TGI [31]: 56.5 µM
TGI [32]: 35.1 µM
TGI [33]: 41.3 µM
TGI [34]: 31 µM
TGI [35]: 35.2 µM
TGI [36]: 29.4 µM
TGI [37]: 55.2 µM
TGI [38]: 41.9 µM
TGI [39]: 60 µM
TGI [40]: > 100 µM
TGI [41]: 59.5 µM
TGI [42]: 30.2 µM
TGI [43]: 26.3 µM
TGI [44]: 35.5 µM
TGI [45]: 29.6 µM
TGI [46]: 34.5 µM
TGI [47]: 32.4 µM
TGI [48]: 40 µM
TGI [49]: 35.5 µM
TGI [50]: 31.3 µM
TGI [51]: 91.1 µM
TGI [52]: 68.9 µM
TGI [53]: > 100 µM

O=C(NC/C(Cl)=C/Cl)Nc1c2ccccc2nc2ccccc12
TGI [1]: > 100 µM
TGI [2]: > 100 µM
TGI [3]: > 100 µM
TGI [4]: > 100 µM
TGI [5]: > 100 µM
TGI [54]: > 100 µM
TGI [6]: > 100 µM
TGI [7]: > 100 µM
TGI [8]: > 100 µM
TGI [9]: > 100 µM
TGI [11]: > 100 µM
TGI [12]: > 100 µM
TGI [13]: > 100 µM
TGI [14]: > 100 µM
TGI [15]: 93.2 µM
TGI [16]: > 100 µM
TGI [17]: > 100 µM
TGI [18]: > 100 µM
TGI [19]: > 100 µM
TGI [20]: > 100 µM
TGI [21]: > 100 µM
TGI [22]: > 100 µM
TGI [23]: > 100 µM
TGI [24]: > 100 µM
TGI [25]: > 100 µM
TGI [55]: > 100 µM
TGI [26]: > 100 µM
TGI [28]: > 100 µM
TGI [29]: > 100 µM
TGI [56]: > 100 µM
TGI [30]: > 100 µM
TGI [31]: > 100 µM
TGI [32]: 80.1 µM
TGI [33]: > 100 µM
TGI [34]: > 100 µM
TGI [35]: > 100 µM
TGI [36]: > 100 µM
TGI [37]: > 100 µM
TGI [38]: > 100 µM
TGI [39]: > 100 µM
TGI [40]: > 100 µM
TGI [57]: > 100 µM
TGI [41]: > 100 µM
TGI [43]: > 100 µM
TGI [44]: > 100 µM
TGI [45]: > 100 µM
TGI [46]: > 100 µM
TGI [47]: > 100 µM
TGI [48]: > 100 µM
TGI [58]: > 100 µM
TGI [49]: > 100 µM
TGI [50]: > 100 µM
TGI [51]: > 100 µM
TGI [52]: > 100 µM
TGI [53]: > 100 µM

CC(C)(C)C(=O)C(C(=O)c1ccccc1)C(=O)C(C)(C)C
TGI [1]: > 100 µM
TGI [2]: > 100 µM
TGI [3]: > 100 µM
TGI [4]: > 100 µM
TGI [5]: > 100 µM
TGI [54]: > 100 µM
TGI [6]: > 100 µM
TGI [7]: > 100 µM
TGI [8]: > 100 µM
TGI [9]: > 100 µM
TGI [10]: > 100 µM
TGI [11]: > 100 µM
TGI [12]: > 100 µM
TGI [13]: > 100 µM
TGI [14]: > 100 µM
TGI [15]: > 100 µM
TGI [16]: > 100 µM
TGI [17]: > 100 µM
TGI [18]: > 100 µM
TGI [19]: > 100 µM
TGI [20]: > 100 µM
TGI [21]: > 100 µM
TGI [22]: > 100 µM
TGI [23]: > 100 µM
TGI [24]: > 100 µM
TGI [55]: > 100 µM
TGI [26]: > 100 µM
TGI [27]: > 100 µM
TGI [28]: > 100 µM
TGI [29]: > 100 µM
TGI [56]: > 100 µM
TGI [30]: > 100 µM
TGI [31]: > 100 µM
TGI [32]: > 100 µM
TGI [33]: > 100 µM
TGI [34]: > 100 µM
TGI [35]: > 100 µM
TGI [36]: > 100 µM
TGI [37]: > 100 µM
TGI [38]: > 100 µM
TGI [39]: > 100 µM
TGI [40]: > 100 µM
TGI [57]: > 100 µM
TGI [41]: > 100 µM
TGI [42]: > 100 µM
TGI [43]: > 100 µM
TGI [44]: > 100 µM
TGI [45]: > 100 µM
TGI [46]: > 100 µM
TGI [48]: > 100 µM
TGI [58]: > 100 µM
TGI [49]: > 100 µM
TGI [50]: > 100 µM
TGI [51]: > 100 µM
TGI [52]: > 100 µM
TGI [53]: > 100 µM

COc1ccc(C2(O)C(S(=O)(=O)c3ccc(C)cc3)=Cc3ccc(OC)cc32)cc1 (stereo not drawn)
TGI [1]: > 100 µM
TGI [2]: > 100 µM
TGI [3]: > 100 µM
TGI [4]: > 100 µM
TGI [5]: > 100 µM
TGI [6]: > 100 µM
TGI [8]: > 100 µM
TGI [9]: > 100 µM
TGI [10]: > 100 µM
TGI [11]: > 100 µM
TGI [12]: 97.4 µM
TGI [13]: > 100 µM
TGI [14]: > 100 µM
TGI [15]: > 100 µM
TGI [16]: 77.2 µM
TGI [17]: > 100 µM
TGI [18]: > 100 µM
TGI [19]: 60.1 µM
TGI [20]: > 100 µM
TGI [21]: > 100 µM
TGI [24]: > 100 µM
TGI [25]: > 100 µM
TGI [55]: > 100 µM
TGI [26]: > 100 µM
TGI [27]: > 100 µM
TGI [28]: > 100 µM
TGI [29]: > 100 µM
TGI [56]: > 100 µM
TGI [30]: > 100 µM
TGI [31]: > 100 µM
TGI [32]: > 100 µM
TGI [33]: > 100 µM
TGI [34]: > 100 µM
TGI [35]: > 100 µM
TGI [36]: > 100 µM
TGI [37]: > 100 µM
TGI [38]: > 100 µM
TGI [39]: > 100 µM
TGI [41]: > 100 µM
TGI [42]: > 100 µM
TGI [43]: > 100 µM
TGI [44]: > 100 µM
TGI [45]: > 100 µM
TGI [46]: > 100 µM
TGI [48]: > 100 µM
TGI [58]: > 100 µM
TGI [49]: > 100 µM
TGI [51]: > 100 µM
TGI [53]: > 100 µM

CC(=O)c1c2c(cc3c1CC1(Cc4cc5c(cc4C1)CCCC5)C3)CCCC2
TGI [1]: > 100 µM
TGI [2]: > 100 µM
TGI [3]: 81.8 µM
TGI [4]: 55.7 µM
TGI [5]: > 100 µM
TGI [6]: > 100 µM
TGI [7]: > 100 µM
TGI [8]: > 100 µM
TGI [11]: > 100 µM
TGI [12]: > 100 µM
TGI [13]: > 100 µM
TGI [14]: > 100 µM
TGI [15]: > 100 µM
TGI [16]: > 100 µM
TGI [18]: > 100 µM
TGI [19]: 72.2 µM
TGI [20]: > 100 µM
TGI [21]: > 100 µM
TGI [22]: > 100 µM
TGI [23]: > 100 µM
TGI [24]: > 100 µM
TGI [25]: 17.5 µM
TGI [55]: > 100 µM
TGI [26]: 56.5 µM
TGI [27]: 31.4 µM
TGI [28]: 53.1 µM
TGI [29]: > 100 µM
TGI [56]: > 100 µM
TGI [30]: > 100 µM
TGI [31]: > 100 µM
TGI [32]: > 100 µM
TGI [33]: > 100 µM
TGI [34]: > 100 µM
TGI [35]: 56.9 µM
TGI [36]: > 100 µM
TGI [37]: > 100 µM
TGI [38]: 38.8 µM
TGI [39]: > 100 µM
TGI [40]: > 100 µM
TGI [57]: > 100 µM
TGI [41]: > 100 µM
TGI [42]: 29.4 µM
TGI [43]: 22.3 µM
TGI [44]: 38.5 µM
TGI [45]: 51.3 µM
TGI [46]: > 100 µM
TGI [47]: > 100 µM
TGI [49]: > 100 µM
TGI [50]: > 100 µM
TGI [52]: > 100 µM
